Source: PubChem BioAssay AID2060497 (Molecular Pharmacology Branch, DTP, NCI, 2025)

Test system: 317291-083-R-J1-PDC complex spheroids, viability
Assay: Anticancer human tumor 317291-083-R-J1-PDC patient-derived soft tissue sarcoma cell line growth inhibition [GQUAD]
Details: for IC50: curve of first compound; for viability, T/C: stronger effect = lower value
Procedure, shortened: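 Tumor cells were grown as complex spheroids with HUVEC endothelial cells and mesenchymal stem cells as stroma. G-quadruplex stabilizers were combined with targeted agents over half-log dilutions from near the clinical Cmax, or from 10 microM.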

[1] = second compound 0.0316 µM, first compound 0.0316 µM
[2] = second compound 0.0316 µM, first compound 0.1 µM
[3] = second compound 0.0316 µM, first compound 0.316 µM
[4] = second compound 0.0316 µM, first compound 1 µM
[5] = second compound 0.0316 µM, first compound 3.16 µM
[6] = second compound 0.0316 µM, first compound 10 µM
[7] = second compound 0.1 µM, first compound 0.0316 µM
[8] = second compound 0.1 µM, first compound 0.1 µM
[9] = second compound 0.1 µM, first compound 0.316 µM
[10] = second compound 0.1 µM, first compound 1 µM
[11] = second compound 0.1 µM, first compound 3.16 µM
[12] = second compound 0.1 µM, first compound 10 µM
[13] = second compound 0.316 µM, first compound 0.0316 µM
[14] = second compound 0.316 µM, first compound 0.1 µM
[15] = second compound 0.316 µM, first compound 0.316 µM
[16] = second compound 0.316 µM, first compound 1 µM
[17] = second compound 0.316 µM, first compound 3.16 µM
[18] = second compound 0.316 µM, first compound 10 µM
[19] = second compound 1 µM, first compound 0.0316 µM
[20] = second compound 1 µM, first compound 0.1 µM
[21] = second compound 1 µM, first compound 0.316 µM
[22] = second compound 1 µM, first compound 1 µM
[23] = second compound 1 µM, first compound 3.16 µM
[24] = second compound 1 µM, first compound 10 µM
[25] = second compound 3.16 µM, first compound 0.0316 µM
[26] = second compound 3.16 µM, first compound 0.1 µM
[27] = second compound 3.16 µM, first compound 0.316 µM
[28] = second compound 3.16 µM, first compound 1 µM
[29] = second compound 3.16 µM, first compound 3.16 µM
[30] = second compound 3.16 µM, first compound 10 µM
[31] = second compound 10 µM, first compound 0.0316 µM
[32] = second compound 10 µM, first compound 0.1 µM
[33] = second compound 10 µM, first compound 0.316 µM
[34] = second compound 10 µM, first compound 1 µM
[35] = second compound 10 µM, first compound 3.16 µM
[36] = second compound 10 µM, first compound 10 µM
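Further: spheroids exposed to compounds for one week before readout.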
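Wherever viability, T/C is given: percent viability relative to DMSO vehicle wells taken as 100%.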

With `COc1cc(C2c3cc4c(cc3C(OC3OC5COC(C)OC5C(O)C3O)C3COC(=O)C23)OCO4)cc(OC)c1O` (centres undefined) + Cc1cnc(CNC(=O)c2c(=O)c3ccc(N4CCCN(C)CC4)nc3n3c2sc2ccccc23)cn1 the IC50 (second compound 0.0316 µM) was 233 nM, the IC50 (second compound 0.1 µM) was 69.2 nM and the IC50 (second compound 0.316 µM) was 66.7 nM. For the same compound, the IC50 (second compound 1 µM) was under 31.6 nM, the IC50 (second compound 3.16 µM) was under 31.6 nM and the IC50 (second compound 10 µM) was under 31.6 nM. The viability, T/C [1] was 81.6%, the viability, T/C [2] was 68.3% and the viability, T/C [3] was 41.4%. It also gave a viability, T/C [4] of 27.7%, a viability, T/C [5] of 15.4% and a viability, T/C [6] of 11.6%. The viability, T/C [7] was 57.5%, the viability, T/C [8] was 46.3% and the viability, T/C [9] was 35.3%. For the same compound, the viability, T/C [10] was 24.9%, the viability, T/C [11] was 15.6% and the viability, T/C [12] was 9.12%. For the same compound, the viability, T/C [13] was 70.5%, the viability, T/C [14] was 39.3% and the viability, T/C [15] was 19.3%. The viability, T/C [16] was 18.8%, the viability, T/C [17] was 16.2% and the viability, T/C [18] was 10.7%. For the same compound, the viability, T/C [19] was 35.9%, the viability, T/C [20] was 28.4% and the viability, T/C [21] was 22.7%. It also gave a viability, T/C [22] of 18.7%, a viability, T/C [23] of 9.1% and a viability, T/C [24] of 8.25%. For the same compound, the viability, T/C [25] was 22.9%, the viability, T/C [26] was 41.3% and the viability, T/C [27] was 14.7%. For the same compound, the viability, T/C [28] was 13.1%, the viability, T/C [29] was 9.56% and the viability, T/C [30] was 3.72%. The viability, T/C [31] was 28.6%, the viability, T/C [32] was 14.6% and the viability, T/C [33] was 9.56%. The viability, T/C [34] was 10.8%, the viability, T/C [35] was 5.33% and the viability, T/C [36] was 11.2%.
`CC1COCCN1c1cc(C2(O)CC3CCC(C2)O3)c2cnn(-c3ccn[nH]3)c2n1` (centres undefined) + Cc1cnc(CNC(=O)c2c(=O)c3ccc(N4CCCN(C)CC4)nc3n3c2sc2ccccc23)cn1 gave an IC50 (second compound 0.0316 µM) of under 31.6 nM, an IC50 (second compound 0.1 µM) of under 31.6 nM and an IC50 (second compound 0.316 µM) of under 31.6 nM. The IC50 (second compound 1 µM) was under 31.6 nM, the IC50 (second compound 3.16 µM) was under 31.6 nM and the IC50 (second compound 10 µM) was under 31.6 nM. It also gave a viability, T/C [1] of 32.1%, a viability, T/C [2] of 22.9% and a viability, T/C [3] of 11.1%. The viability, T/C [4] was 10.5%, the viability, T/C [5] was 13% and the viability, T/C [6] was 3.33%. It also gave a viability, T/C [7] of 25.9%, a viability, T/C [8] of 22.6% and a viability, T/C [9] of 10.6%. The viability, T/C [10] was 11.6%, the viability, T/C [11] was 28.6% and the viability, T/C [12] was 2.82%. The viability, T/C [13] was 18.4%, the viability, T/C [14] was 16.2% and the viability, T/C [15] was 26.7%. The viability, T/C [16] was 11.9%, the viability, T/C [17] was 11.1% and the viability, T/C [18] was 2.89%. For the same compound, the viability, T/C [19] was 25.6%, the viability, T/C [20] was 18.5% and the viability, T/C [21] was 12.9%. The viability, T/C [22] was 12.1%, the viability, T/C [23] was 11.7% and the viability, T/C [24] was 5.12%. For the same compound, the viability, T/C [25] was 14.8%, the viability, T/C [26] was 14.6% and the viability, T/C [27] was 11.1%. For the same compound, the viability, T/C [28] was 12.7%, the viability, T/C [29] was 15.6% and the viability, T/C [30] was 0.73%. It also gave a viability, T/C [31] of 12.7%, a viability, T/C [32] of 9.14% and a viability, T/C [33] of 16.9%. For the same compound, the viability, T/C [34] was 24.7%, the viability, T/C [35] was 12.1% and the viability, T/C [36] was 2.17%.
